The values below come from patent US20250051762A1, “PLATFORM USING DNA-ENCODED SMALL MOLECULE LIBRARIES AND RNA SELECTION TO DESIGN SMALL MOLECULES THAT TARGET RNA” (University of Florida Research Foundation, Incorporated, priority 2021, published 2025).

The test system of one assay is WT pri-miR-27a. Description: RT-qPCR of miR-27a biogenesis in MCF-10a cells transfected with WT pri-miR-27a. It is filed as cell-based, human. The conditions noted are these: WT pri-miR-27a plasmid, 48 h. An excerpt: To gauge the specificity of 9 for pri-miR-27a, inhibition of biogenesis was first studied in a cellular model of healthy breast epithelium, MCF-10a, in which miR-27a expression is not detectable (Ct>31). MCF-10a cells were transfected with a plasmid encoding WT pri-miR-27a or mutant in which the two 5′GAG/3′CCC internal loops at and nearby the Drosha processing site were mutated to base pairs. In the absence of compound treatment, both primary miRNA transcripts were processed similarly, generating mature miR-27a, as determined by RT-qPCR.
Cell lines. Compounds were tested in MDA-MB-231 TNBC cells (HTB-26, ATCC), LNCaP metastatic prostate cancer cells (gifted from Junli Luo lab), MCF-7 (HTB-22, ATCC) breast cancer cells, HeLa cervical adenocarcinoma cells (CCL-2, ATCC), and MCF-10a, a model of healthy breast epithelial cells (CRL-10317, ATCC).
Cell culture and compound treatment. All cells were maintained at 37° C. with 5% CO2. […]
Analysis of mRNA abundance: Each cell line was grown as a monolayer in 12- or 24-well plates and treated as described in “Cell culture and compound treatment”. […] Relative abundance of mature miRNAs was calculated by normalizing to RNU6, and relative abundance for pri-miRNAs and mRNAs was calculated by normalizing to 18S ribosomal RNA, using the AAC, method. […]
(In general: In qPCR the cycle at which signal appears reflects the starting amount.)

The subject of a further assay is mutant pri-miR-27a. Description: Competitive MST binding assay with unlabeled mutated pri-miR-27a. The arrangement: species or system human. The conditions noted are these: two 5′GAG/3′CCC loops mutated to base pairs. The protocol:
To measure the affinity of 9 for the 5′GAG/3′CCC loop in the context of pri-miR-27a, a competitive binding assay was used with a constant concentration of compound (100 nM) and the Cy5-labeled model of pri-miR-27a's Drosha site, and varying concentrations of unlabeled miR-27a precursor as reported by miRBase. (35) That is, the miR-27a precursor competes with the Cy5-labeled model of pri-miR-27a's Drosha site for binding 9. […] Thus, the compounds identified by using DEL-2DCS can bind avidly to biologically relevant RNA targets identified by Inforna.
For competitive binding assays, both WT and mutant pri-miR-27a RNAs were transcribed as previously described (see Table S6 for sequences). (11) The RNA was purified by gel electrophoresis and folded in 1× Binding Buffer at final concentration of 750 nM by heating at 60° C. for 5 min and then slowly cooling to room temperature. […] The resulting data were analyzed by SigmaPlot and fitted by Equation 2 to yield the competitive dissociation constant (Kd competitive).
where F is the concentration of fluorescence-labeled RNA; unbound and bound refers to the thermophoresis signal at completely unbound and bound state of RNA, respectively; c is the concentration of the compound; f (c) is the thermophoresis signal at compound concentration of c; Kd is the dissociation constant. […]

`C#CCN(CC(N)=O)C(=O)C[C@H](Cc1c[nH]c2ccccc12)NC(=O)[C@@H]1C[C@H](NC(=O)Cn2c(=O)[nH]c3ccccc3c2=O)CN1` [Compound 9]: in the assay with WT pri-miR-27a, the “mature miR-27a levels” value was “reduction” and the pri-miR-27a levels result is “increase”. Moreover, the “binding (competitive)” value in the assay on mutant pri-miR-27a is on record as “binding was abolished”.
